For three compounds, GI50, Caspase-3 and Caspase-9 results are on record in patent US8835458B2 (Hanmi Science Co., Ltd, priority 2010, dated 2014).

A short description of series [1]: Toxicity to normal cells (SRB). The class given is cell-based, mouse. The note with it: mouse, Balb/c3t3 fibroblasts (normal cell line), read-out: BalB/C (GI50). The method, boiled down: (§1)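 Cells seeded at 3,000˜5,000 cells/100 μL, grown 24 h at 37° C (MDA-MB-231 under atmospheric conditions), then exposed to 10 μM˜0.1 nM compound. MDA-MB-231 cultured 120 h, read by MTS at 490 nm; fibroblasts cultured 72 h, TCA-fixed, SRB-stained, read at 540 nm. GI50 from growth relative to untreated and medium-only cells.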

For series [2], the system named is caspase 3/7. As to the kind of experiment: Evaluation of caspase activity (Caspase-Glo 3/7 Assay Kit). The class given is cell-based. The note with it: MDA-MB-231 cells, 12 hours, compared to untreated MDA-MB-231 cells; 0.5, 1, 5 μM tested. As to the method: (§2) MDA-MB-231 breast cancer cells (ATCC #HTB-26) were plated in 96-well plates at a density of 1.0 1.5×10^4 cells/well. […] Then, media were removed and the cells were washed two times with PBS at 4° C. The cells were treated with a solution of the analysis samples and media (1:1) in an amount of 140 μL/well using Caspase-GloTM 9 Assay Kit (Cat#. […]; Promega, USA) and Caspase-GloTM 3/7 Assay Kit (Cat#. […]; Promega, USA). After the cells were incubated at 37° C. for 2 hours, luminescence was measured using InfiniteTM M1000 multi reader (Tecan). […] The values were represented as “***” for six fold or more, “**” for 4 fold to below 6 fold, and “*” for 1 fold to below 4 fold, as compared to that of untreated, normal MDA-MB-231 breast cancer cell lines.

Series [3] is described as follows: Toxicity to normal cells (SRB). The class given is cell-based, human. The note with it: human, Hs27 fibroblasts (normal cell line). The method, boiled down: as §1
Series [4] deals with MDA-MB-231 breast cancer cell lines. The experiment in a line: Evaluation of inhibition on cell growth (MTS). It counts as cell-based. The method, boiled down: as §1
Series [5] concerns caspase 9. As to the kind of experiment: Evaluation of caspase activity (Caspase-Glo 9 Assay Kit). The class given is cell-based. The note with it: MDA-MB-231 cells, 16 hours, compared to untreated MDA-MB-231 cells; 0.5, 1, 5 μM tested. As to the method: as §2
The test system of series [6] is Balb/c3t3 fibroblasts. As to the kind of experiment: Toxicity to normal cells (SRB). The class given is cell-based, mouse. Conditions: normal cell line, 72 hours, read-out: BalB/C (GI50). A digest of the protocol:
as §1

The test system of series [7] is Hs27 fibroblasts. As to the kind of experiment: Toxicity to normal cells (SRB). The note with it: normal cell line, 72 hours. The class given is cell-based, human. A digest of the protocol:
as §1

Setting [8] is: Homo sapiens, MDA-MB-231, 120 hours.

Like-named read-outs stand apart in the source and are kept apart here. A value given as a limit tells only on which side of the number the result lay.

As to `CN[C@@H](C)C(=O)N[C@H](C(=O)N1CCC[C@H]1C(=O)Nc1cc2c(NCc3ccccc3)ncnc2cc1OC)C(C)(C)C.Cl` [Example 18, (S)—N-(4-benzylamino-7-methoxyquinazolin-6-yl)-1-((S)-3,3-dimethyl-2-((S)-2-(methylamino)propanamido)butanoyl)pyrrolidine-2-carboxamide hydrochloride], the GI50 at 72 h in series [1] and in series [3] was above 10 µM in each case. Also, the Caspase-3 result in series [2] is given as “*** (six fold or more)”. In series [4] (setting [8]), this compound yielded a GI50 of at most 0.1 µM. Further, the Caspase-9 entry in series [5] is listed as “*** (six fold or more)”.
`CN[C@@H](C)C(=O)N[C@H](C(=O)N1CCC[C@H]1C(=O)Nc1cc2c(Nc3ccc(Oc4ccc(C)nc4)c(Cl)c3)ncnc2cc1OC)C(C)(C)C.Cl` [Example 19, (S)—N-(4-(3-chloro-4-(6-methylpyridin-3-yloxy)phenylamino)-7-methoxyquinazolin-6-yl)-1-((S)-3,3-dimethyl-2-((S)-2-(methylamino)propanamido)butanoyl)pyrrolidine-2-carboxamide hydrochloride]: the GI50 at 72 h in series [1] and in series [3] was above 10 µM each time. For the same compound, the Caspase-3 entry in series [2] is given as “*** (six fold or more)”. For the same compound, in series [4] (setting [8]), the GI50 was at most 0.1 µM. For the same compound, in series [5], the Caspase-9 result is “*** (six fold or more)”.
On to “(S)—N—((S)-1-((S)-2-(4-((4-bromo-2-fluorophenylamino)-6-methoxyquinazolinyl-7-oxy)methyl)piperidine)-1-carbonyl)-1-pyrrolidinyl)-3,3-dimethyloxobutan-2-yl)-2-(methylamino)propanamide hydrochloride [Example 44]”, for which the GI50 in series [6] was above 10 µM; in series [7], above 10 µM; in series [4] (120 hours) it was at most 0.1 µM.
